The target in one assay is KRAS G12D (Homo sapiens (Human), UniProt P01116, G12D). Kind of assay: KRAS G12D LoEnz Biochemical Assay, BODIPY-GDP Exchange TR-FRET (SOS1-mediated nucleotide exchange). As to conditions: read-out: KRas (G12D) GDP HTRF IC50. How it is done: Example 500: KRAS G12D LoEnz Biochemical Assay, BODIPY-GDP Exchange TR-FRET. Biochemical compound potencies are assessed by evaluating inhibition of SOS1I-mediated nucleotide exchange in KRAS G121D. In this assay, the SOS1-promoted exchange of fluorescently-labeled GDP (BOPIDY-GDP) is monitored by time-resolved fluorescence resonance energy transfer (TR-FRET). Compounds solubilized in DMS0 are dispensed as concentration series into 384-well white assay plates. A preformed complex of biotin-tagged recombinant human KRAS (0.06 nM mutant G1 2D) and 0.06 nM terbium-labeled streptavidin (CisBIO) prepared in 10 uL/well assay buffer (20 mM HEPES, pH 7.5, 50 mM NaCl, 10 mMMMgCl2, 0.0100 Tween-20 and 1 mM dithiothreitol) is added and allowed to incubate for 10-minutes at room temperature. The reaction is initiated with the addition of 5 uL 300 nM recombinant human SOS1 and 300 nM BODIPY-GDP in assay buffer. After a 120-minute incubation, the fluorescence is measured with excitation at 337 nm and emission at 490 and 520 nm. The TR-FRET ratio is determined as the fluorescence at 520 nm divided by the fluorescence at 490 nm multiplied by 10,000. The results are normalized to percent inhibition based on control samples: DMSO (0% inhibition) and control compound at a concentration that inhibits completely (100% inhibition). The normalized TR-FRET results are plotted against compound concentration, and the data are fit to a 4-parameter Hill equation to determine the IC50 values.
Chain of KRAS G12D (P01116-2 other isoform, or with tags, fused parts or gaps G12D): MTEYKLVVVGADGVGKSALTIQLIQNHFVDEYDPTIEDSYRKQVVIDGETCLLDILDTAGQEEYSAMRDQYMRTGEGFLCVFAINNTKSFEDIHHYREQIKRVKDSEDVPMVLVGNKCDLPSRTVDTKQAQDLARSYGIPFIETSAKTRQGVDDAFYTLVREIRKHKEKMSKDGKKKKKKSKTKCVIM

In another assay the target is KRAS WT (Homo sapiens (Human), UniProt P01116). Briefly: KRAS WT Biochemical Assay, BODIPY-GDP Exchange TR-FRET (Example 501; 3 nM KRAS WT, 3 nM SOS1, 60-minute incubation). How it is done:
Example 501: KRAS WT Biochemical Assay, BODIPY-GDP Exchange TR-FRET. Biochemical compound potencies are assessed by evaluating inhibition of SOS1-mediated nucleotide exchange in KRAS WT. In this assay, the SOS1-promoted exchange of fluorescently-labeled GDP (BOPIDY-GDP) is monitored by time-resolved fluorescence resonance energy transfer (TR-FRET). Compounds solubilized in DMSO are dispensed as concentration series into 384-well white assay plates, and 5 uL assay buffer (20 mM HEPES, pH 7.5, 50 mM NaCl, 10 mM MgCl2, 0.01% Tween-20 and 1 mM dithiothreitol) is added just prior to the start of the assay. A preformed complex of 3 nM biotin-tagged recombinant human KRAS WT and 0.3 nM terbium-labeled streptavidin (CisBIO) prepared in 5 uL/well assay buffer is added and allowed to incubate for 10-minutes at room temperature. The reaction is initiated with the addition of 5 uL 3 nM recombinant human SOS1 and 300 nM BODIPY-GDP in assay buffer. After a 60-minute incubation, the fluorescence is measured with excitation at 337 nm and emission at 490 and 520 nm. The TR-FRET ratio is determined as the fluorescence at 520 nm divided by the fluorescence at 490 nm multiplied by 10,000. The results are normalized to percent inhibition based on control samples: DMSO (0% inhibition) and control compound at a concentration that inhibits completely (100% inhibition). The normalized TR-FRET results are plotted against compound concentration, and the data are fit to a 4-parameter Hill equation to determine the IC50 values.
(In general: In TR-FRET formats the signal depends on donor and acceptor labels being close together.)

Where [1] appears, read: read-out: KRas(wt) GDP HTRF IC50.

Like-named read-outs stand apart in the source and are kept apart here.

One may read the IC50 as the concentration that gives 50% inhibition.

Chain of KRAS WT (P01116-2 other isoform, or with tags, fused parts or gaps): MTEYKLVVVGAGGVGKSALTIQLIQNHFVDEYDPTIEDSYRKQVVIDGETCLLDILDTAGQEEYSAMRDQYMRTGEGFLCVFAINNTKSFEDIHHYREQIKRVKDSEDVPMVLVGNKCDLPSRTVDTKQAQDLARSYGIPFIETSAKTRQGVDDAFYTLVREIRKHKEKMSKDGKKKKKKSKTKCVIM

`Cc1c(F)ccc(-c2nc3c4c(nc(OC[C@@]56CCCN5C[C@H](F)C6)nc4c2F)N2C[C@H]4CC[C@H](N4)[C@H]2[C@H](C)O3)c1C(F)(F)F` [Compound 203, (5S,5aS,6S,9R)-1-fluoro-2-(4-fluoro-3-methyl-2-(trifluoromethyl)phenyl)-12-(((2R,7aS)-2-fluorotetrahydro-1H-pyrrolizin-7a(5H)-yl)methoxy)-5-methyl-5a,6,7,8,9,10-hexahydro-5H-4-oxa-3,10a,11,13,14-pentaaza-6,9-methanonaphtho[1,8-ab]heptalene]: the IC50 turned out to be 26.8 nM at KRAS G12D and 1590 nM at KRAS WT (read-out: KRas HTRF IC50).

As to `CCc1c(F)c(N)cc(-c2nc3c4c(nc(OC[C@@H]5CC[C@H]6COCCN65)nc4c2F)N2C[C@H]4CC[C@H](N4)[C@H]2[C@H](C)O3)c1C(F)(F)F` [Compound 232, 3-Ethyl-2-fluoro-5-((5S,5aS,6S,9R)-1-fluoro-12-(((6S,8aS)-hexahydro-1H-pyrrolo[2,1-c][1,4]oxazin-6-yl)methoxy)-5-methyl-5a,6,7,8,9,10-hexahydro-5H-4-oxa-3,10a,11,13,14-pentaaza-6,9-methanonaphtho[1,8-ab]heptalen-2-yl)-4-(trifluoromethyl)aniline], the values for the IC50 at KRAS G12D and at KRAS WT (read-out: KRas HTRF IC50) were 2.86 nM and 277 nM, respectively.

Consider `Cc1c(F)c(N)cc(-c2nc3c4c(nc(OC[C@]56CCN5CC(F)(F)C6)nc4c2F)N2C[C@H]4CC[C@H](N4)[C@H]2[C@H](C)O3)c1C(F)(F)F` [Compound 24, 5-((5S,5aS,6S,9R)-12-(((R)-3,3-difluoro-1-azabicyclo[3.2.0]heptan-5-yl)methoxy)-1-fluoro-5-methyl-5a,6,7,8,9,10-hexahydro-5H-4-oxa-3,10a,11,13,14-pentaaza-6,9-methanonaphtho[1,8-ab]heptalen-2-yl)-2-fluoro-3-methyl-4-(trifuoromethyl)aniline], for which the IC50 came out at 0.29 nM at KRAS G12D and 3.28 nM on KRAS WT (setting [1]).

Take `CCc1cccc2cc(O)cc(-c3nc4c5c(nc(OC[C@@]67CCCN6C[C@H](F)C7)nc5c3F)N3C[C@H]5CC[C@H](N5)[C@H]3CO4)c12` [Compound 5, 5-ethyl-4-((5aS,6S,9R)-1-fluoro-12-(((2R,7aS)-2-fluorotetrahydro-1H-pyrrolizin-7a(5H)-yl)methoxy)-5a,6,7,8,9,10-hexahydro-5H-4-oxa-3,10a,11,13,14-pentaaza-6,9-methanonaphtho[1,8-ab]heptalen-2-yl)naphthalen-2-ol]: the 50% inhibitory concentration (IC50) on KRAS G12D worked out at 0.06 nM; on KRAS WT (setting [1]) it was 2.12 nM.

Turning to `Cc1nc(N)cc(-c2nc3c4c(nc(OC[C@@]56CCCN5C[C@H](F)C6)nc4c2F)N2C[C@H]4CC[C@H](N4)[C@H]2[C@H](C)O3)c1OC(F)F` [Compound 188, 5-(Difluoromethoxy)-4-((5S,5aS,6S,9R)-1-fluoro-12-(((2R,7aS)-2-fluorotetrahydro-1H-pyrrolizin-7a(5H)-yl)methoxy)-5-methyl-5a,6,7,8,9,10-hexahydro-5H-4-oxa-3,10a,11,13,14-pentaaza-6,9-methanonaphtho[1,8-ab]heptalene-2-yl)-6-methylpyridin-2-amine], the IC50 is 1.26 nM at KRAS G12D and 225 nM at KRAS WT (read-out: KRas HTRF IC50).

Take `C[C@@H]1Oc2nc(-c3cc(N)nc(C(F)F)c3C(F)(F)F)c(F)c3nc(OC[C@@]45CCCN4C[C@H](F)C5)nc(c23)N2C[C@H]3CC[C@H](N3)[C@@H]12` [Compound 260, 6-(Difluoromethyl)-4-((5S,5aS,6S,9R)-1-fluoro-12-(((2R,7aS)-2-fluorotetrahydro-1H-pyrrolizin-7a(5H)-yl)methoxy)-5-methyl-5a,6,7,8,9,10-hexahydro-5H-4-oxa-3,10a,11,13,14-pentaaza-6,9-methanonaphtho[1,8-ab]heptalen-2-yl)-5-(trifluoromethyl)pyridin-2-amine]: the IC50 stood at 0.28 nM at KRAS G12D and 26.2 nM on KRAS WT (read-out: KRas HTRF IC50).

For the origin of these results see patent publication US20240025919A1, “AZA-TETRACYCLIC OXAZEPINE COMPOUNDS AND USES THEREOF” (Genentech, Inc., priority 2022, published 2024).
